Measurements as given in patent US20100022637A1, “IDENTIFICATION OF ANTI-CANCER COMPOUNDS AND COMPOUNDS FOR TREATING HUNTINGTON'S DISEASE AND METHODS OF TREATMENT THEREOF” (THE TRUSTEES OF COLUMBIA UNIVERSITY IN THE CITY OF NEW YORK, priority 2005, published 2010).

Tests used:
[1] = test system: RKO-E6 cells; experiment: Alamar Blue viability assay, RKO-E6; format: cell-based, human; conditions: in words; for effect on doxorubicin's lethality in RKO-E6 cells: co-treatment with 0.5 μg/ml doxorubicin, 24 h
Protocol: RKO colon carcinoma, human (ATCC, order # CRL-2577), RKO-E6 colon carcinoma transfected with HPV E6 inserted in pCMV.3 (ATCC, order # CRL-2578) were grown in MEM with 2 mM L-glutamine and Earle's BBS adjusted to contain 1.5 g/L NaHCO3, 0.1 mM non-essential amino acids and 1.0 mM sodium pyruvate, and supplemented with 10% fetal bovine serum, penicillin and streptomycin (pen/strep). Both cell lines were incubated at 37° C. in a humidified incubator containing 5% CO2.
The Alamar Blue assay incorporates a fluorimetric/colorimetric growth indicator that changes color in the response to chemical reduction by viable cells (Nociari 1998). Cells were seeded at a density of 3,000 cells (57 μl) per well in a 384-well black, clear-bottom plates using a syringe bulk dispenser (Zymark Sciclone ALH). Three microliters were removed from a compound daughter plate using a 384 fixed cannula head and added to the assay plate, making the final concentration 4 μg/ml. The plates were incubated for 24 h at 37° C. 10 μl of 40% Alamar Blue (Biosource Int., cat #DAL1100) solution in media was added to each well (1:10 dilution). The assay plates were incubated for 16h. Fluorescence intensity was determined using a Packard Fusion platereader with a 535 nm excitation filter and a 590 nm emission filter. The average fluorescence for the whole plate was used as a positive control. Average percentage inhibition for each well was determined using our freely available SLIMS software (Kelley et al., 2004).
The daughter plates for the 2-fold dilution series were prepared with a Zymark Sciclone ALH by diluting the replica daughter plates to obtain compound concentrations from 8 μg/ml-0.008 μg/ml (columns 8-18). Columns 1-7 were used as untreated control. RKO-E6 cells were seeded at the density of 3,000 per well in 55 μl, and 5 μl were added from the daughter plate. RKO cells were seeded at the density of 2,000 per well in 55 μl, and 5 μl were added from the daughter plate. The assay was incubated for 24 h at 37° C. 10% Alamar Blue was added to each well and the assay was incubated for 16 h (see above). Compounds for retesting were purchased from the manufacturers or from Sigma-Aldrich (see above). Stocks were prepared in DMSO at 4 mg/ml.
Each cell line (RKO, RKO-E6, HeLa and TC32) was treated with a dose combination matrix of doxorubicin and a selected hit compound. Each treatment was done in a triplicate in 384-well format. The average percent inhibition of cell proliferation, measured with Alamar Blue, was determined using the following formula: […]

[2] = Rescue and toxicity of Compound 164 and analogs (Table 4); conditions: for Max % Toxicity / Max % Rescue: Table 4, cell model not stated; for TC50: Table 4, toxicity

Row | Compound | EC50 [2] | Max % Toxicity [2] | TC50 [2] | also measured
1 | CCCCCC(O)C=CC1CCC(=O)C1CCCCCCC(=O)O (stereo not shown) [11-deoxyprostaglandin E1] | – | – | – | effect on doxorubicin's lethality in RKO-E6 cells [1]: showed no activity
2 | Cc1ccc(C2(CCNC(=O)c3ccc(Br)o3)CCOC(C(C)C)C2)cc1 (stereo not shown) [Compound 164-2] | 440 nM | 53.69% | – | –
3 | CCC(=O)N(CCC(Cc1ccccc1)C1CCOC(C)(C)C1)Cc1ccco1 (stereo not shown) [Compound 164-3] | 200 nM | 56.80% | 8000 nM | –
4 | CC(c1ccccc1)N(CCC(Cc1ccccc1)C1COCC(C)(C)C1)C(=O)c1ccco1 (stereo not shown) [Compound 164-4] | – | 64.22% | 400 nM | –
5 | COc1ccc(CN(CCC(c2ccccc2)C2CCOC(C)(C)C2)C(=O)c2ccco2)cc1OC (stereo not shown) [Compound 164-5, N-(3,4-dimethoxybenzyl)-N-[3-(2,2-dimethyltetrahydro-2H-pyran-4-yl)-3-phenylpropyl]-2-furamide] | 200 nM | 18.43% | 6000 nM | –
6 | COc1ccc(CN(CCC2(c3ccc(C)cc3)CCOC(C)(C)C2)C(=O)c2ccco2)cc1 (stereo not shown) [Compound 164-6] | 100 nM | 60.14% | 3000 nM | –
7 | COc1ccc(CN(CCC(c2ccc(OC(C)C)cc2)C(C)C)C(=O)c2ccco2)cc1 (stereo not shown) [Compound 164-7] | 100 nM | 63.90% | 400 nM | –
8 | COc1ccc(CN(CCC2(c3ccccc3)CCOC(C)(C)C2)C(C)=O)cc1OC (stereo not shown) [Compound 164-9] | – | 19.60% | – | Max % Rescue [2]: 28.56%
9 | COc1ccccc1C1(CCN(Cc2ccccc2)C(=O)c2ccco2)CCOC(C)(C)C1 (stereo not shown) [Compound 164-10, 2-Furancarboxamide, N-(phenylmethyl)-N-[2-[tetrahydro-4-(2-methoxyphenyl)-2,2-dimethyl-2H-pyran-4-yl]ethyl]-(9CI)] | 200 nM | 62.27% | 1700 nM | –
10 | COc1ccc(C2c3cc(OC)c(OC)cc3CCN2C(=O)c2ccco2)cc1OC (stereo not shown) [Compound 164-11, Isoquinoline, 1-(3,4-dimethoxyphenyl)-2-(2-furanylcarbonyl)-1,2,3,4-tetrahydro-6,7-dimethoxy-(9CI)] | – | – | – | Max % Rescue [2]: 7.95%
11 | CC(=O)N(CCC1(c2ccc(C)cc2)CCOC(C(C)C)C1)Cc1ccco1 (stereo not shown) [Compound 164-12, N-(2-furylmethyl)-N-{2-[2-isopropyl-4-(4-methylphenyl)tetrahydro-2H-pyran-4-yl]ethyl}acetamide] | – | 60.37% | 8000 nM | –
12 | CC(c1ccccc1)N(CCC(c1ccccc1)C1CCOC(C)(C)C1)C(=O)c1ccco1 (stereo not shown) [Compound 164-13, N-[3-(2,2-dimethyltetrahydro-2H-pyran-4-yl)-3-phenylpropyl]-N-(1-phenylethyl)-2-furamide] | – | 55.74% | 4000 nM | –
13 | COc1ccc(CN(CCC(c2ccc(OC)cc2)C2CCOC(C)(C)C2)C(=O)c2ccco2)cc1 (stereo not shown) [Compound 164-14, N-[3-(2,2-dimethyltetrahydro-2H-pyran-4-yl)-3-(4-methoxyphenyl)propyl]-N-(4-methoxybenzyl)-2-furamide] | 200 nM | 53.80% | 2000 nM | –
14 | CCC(=O)N(CCC1(c2ccc(F)cc2)CCOC(C)(C)C1)Cc1ccc(OC)c(OC)c1 (stereo not shown) [Compound 164-15, Propanamide, N-[(3,4-dimethoxyphenyl)methyl]-N-[2-[4-(4-fluorophenyl)tetraydro-2,2-dimethyl-2H-pyran-4-yl}ethyl]-(9CI)] | – | – | – | Max % Rescue [2]: 48.92%
15 | CC1(C)CC(CCN(Cc2ccccc2)C(=O)c2ccco2)(c2ccccc2)CCO1 (stereo not shown) [Compound 164-16, 2-Furancarboxamide, N-(phenylmethyl)-N-[2-(tetrahydro-2,2-dimethyl-4-phenyl-2H-pyran-4-yl)ethyl]-(9CI)] | 200 nM | 53.14% | – | CC50 [2]: 8000 nM
16 | O=C(c1ccco1)N1CCN(Cc2ccc3c(c2)OCO3)CC1 [Compound 164-17, 1-(1,3-benzodioxol-5-ylmethyl)-4-(2-furoyl)piperazine] | – | 31.31% | – | –
17 | COc1cccc(CN2CCN(C(=O)c3ccco3)CC2)c1 [Compound 164-18, 1-(2-furoyl)-4-(3-methoxybenzyl)piperazine] | – | 12.00% | – | –
18 | COc1ccc(CN2CCN(C(=O)c3ccco3)CC2)cc1OC [Compound 164-19, 1-(3,4-dimethoxybenzyl)-4-(2-furoyl)piperazine] | 18900 nM | 27.77% | – | –
19 | COc1ccc(CN(CCC2(c3ccccc3)CCOC(C)(C)C2)C(=O)c2ccco2)cc1OC (stereo not shown) [Compound 164] | 10000 nM | 1.27% | – | –
20 | CCCCCCCCCCCCCCCC[N+](C)(C)C.[Br-] [cetrimonium bromide, cetyltrimethylammonium bromide] | – | – | – | effect on doxorubicin's lethality in RKO-E6 cells [1]: selectively increased doxorubicin's lethality; effect on camptothecin's lethality ([1]; co-treatment with camptothecin): did not synergize with camptothecin
21 | O[C@H]1[C@H]2c3cc4c(cc3CN3CC[C@H](C[C@@H]1O)[C@H]23)OCO4 [dihydrolycorine] | – | – | – | effect on doxorubicin's lethality in RKO-E6 cells [1]: potentiated doxorubicin's lethality
22 | CC[C@H]1CN2CCc3cc(OC)c(OC)cc3[C@@H]2C[C@@H]1C[C@H]1NCCc2cc(OC)c(OC)cc21 [emetine] | – | – | – | effect on doxorubicin's lethality in RKO-E6 cells [1]: potentiated doxorubicin's lethality
23 | NC(=O)NO [hydroxyurea] | – | – | – | effect on doxorubicin's lethality in RKO-E6 cells [1]: only modest upregulation of doxorubicin's lethality
24 | Propanamide, N-[(3,4-dimethoxyphenyl)methyl]-N-[2-(tetrahydro-2,2-dimethyl-4-phenyl-2H-pyran-4-yl)ethyl]-(9CI) [Compound 164-8] | – | – | – | Max % Rescue [2]: 51.48%
